Patent US9593305B2, “Differentiation of pluripotent stem cells” (Janssen Biotech, Inc., priority 2008, dated 2017)

Test system: H1 human embryonic stem cells
Assay: Secondary assay: panel of compounds with growth factor combinations and muscimol, no activin A (Example 6, Table 5)
Type: cell-based
Conditions: no AA (with Wnt3a)
Procedure: Clusters of H1 human embryonic stem cells were grown on reduced growth factor […]™ (Invitrogen; Cat #356231)-coated tissue culture plastic. Cells were passaged using collagenase (Invitrogen; Cat #17104-019) treatment and gentle scraping, washed to remove residual enzyme, and plated with even dispersal at a ratio of 1:1 (surface area) on reduced growth factor […]™-coated 96-well black plates (Packard ViewPlates; PerkinElmer; Cat #6005182) using volumes of 100 μl/well. Cells were allowed to attach as clusters and then recover log phase growth over a 1 to 3 day period, feeding daily with MEF-conditioned medium supplemented with 8 ng/ml bFGF (R&D Systems; Cat #233-FB). Plates were maintained at 37° C., 5% CO2 in a humidified box throughout the duration of the assay. Stocks of growth factors purchased from R&D Systems were EGF (Cat #236-EG), FGF4 (Cat #235-F4), PDGF-A (Cat #221-AA), PDGF-D (Cat #1159-SB), PDGF-A/B (Cat #222-AB), and VEGF (Cat #293-VE). […] All growth factors were solubilized in PBS with 0.1% BSA (Sigma; Cat #A7888) and stored frozen at −80° C. […] Cat #D2650) and stored frozen at −80° C. Compounds were available as 5 mM stocks in 96-well plate format, solubilized in 100% DMSO and stored at −80° C. Compounds were further diluted to an intermediate concentration of 0.2 mM in 50 mM HEPES (Invitrogen; Cat #15630-080), 20% DMSO and stored at 4° C. All growth factors and inhibitors were prepared in a deep well, 96-well polypropylene plate, diluted to 5× intermediate stocks in DMEM:F12 base medium at the beginning of assay and stored at 4° C. A secondary screening assay was conducted, testing in triplicate and feeding on alternate days over the four-day assay timeframe. Assays were initiated by aspirating culture medium from each well followed by three washes in PBS to remove residual growth factors and serum. Test volumes of 80 μl per well were added back containing DMEM:F12 base medium (Invitrogen; Cat #11330-032) supplemented with 0.625% FCS (HyClone; […] All remaining growth factors were tested at a final assay concentration of 50 ng/ml (EGF, FGF4, PDGF-A, PDGF-A/B, VEGF). […] At the conclusion of four-days of culture, assay plates were washed twice with PBS, fixed with 4% paraformaldehyde (Alexis Biochemical; Cat #ALX-350-011) at room temperature for 20 minutes, then washed three times with PBS and permeabilized with 0.5% Triton X-100 (Sigma; Cat #T8760-2) for 20 minutes at room temperature. Cells were washed again three times with PBS and blocked with 4% chicken serum (Invitrogen; Cat #16110082) in PBS for 30 minutes at room temperature. Primary antibody (goat anti-human SOX17; R&D Systems; cat #AF1924) was diluted 1:100 in 4% chicken serum and added to each well for one hour at room temperature. Alexa Fluor 488 conjugated secondary antibody (chicken anti-goat IgG; Molecular Probes; Cat #AZ1467) was diluted 1:200 in PBS and added to each sample well after washing three times with PBS. To counterstain nuclei, 4 μg/ml Hoechst 33342 (Invitrogen; Cat #H3570) was added for ten minutes at room temperature. Plates were washed once with PBS and left in 100 μl/well PBS for imaging. Imaging was performed using an IN Cell Analyzer 1000 (GE Healthcare) utilizing the 51008bs dichroic for cells stained with Hoechst 33342 and Alexa Fluor 488. Exposure times were optimized from positive control wells and from untreated negative control wells stained with secondary antibody alone. Images from 15 fields per well were acquired to compensate for any cell loss during the bioassay and subsequent staining procedures. […] Segmentation for the nuclei was determined based on grayscale levels (baseline range 100-300) and nuclear size. Averages and standard deviations were calculated for each replicate data set. Total SOX17 protein expression was reported as total intensity or integrated intensity, defined as total fluorescence of the cell multiplied by the area of the cell. […]

[1] = EGF + FGF4 + PDGF-AB + Muscimol

Row | SMILES | Cell Number, % of positive control (EGF) [%] | Cell Number, Average Total Cell Number (EGF) | Sox17 Expression, % of positive control (EGF) [%] | Sox17 Expression, Average Total Intensity (EGF) | Cell Number, % of positive control (EGF + FGF4) [%] | Cell Number, Average Total Cell Number (EGF + FGF4) | Sox17 Expression, % of positive control (EGF + FGF4) [%] | Sox17 Expression, Average Total Intensity (EGF + FGF4) | Cell Number, % of positive control (EGF + FGF4 + PDGF-A + Muscimol) [%] | Cell Number, Average Total Cell Number (EGF + FGF4 + PDGF-A + Muscimol) | Sox17 Expression, % of positive control (EGF + FGF4 + PDGF-A + Muscimol) [%] | Sox17 Expression, Average Total Intensity (EGF + FGF4 + PDGF-A + Muscimol) | Cell Number, % of positive control (EGF + FGF4 + PDGF-A + VEGF) [%] | Cell Number, Average Total Cell Number (EGF + FGF4 + PDGF-A + VEGF) | Sox17 Expression, % of positive control (EGF + FGF4 + PDGF-A + VEGF) [%] | Sox17 Expression, Average Total Intensity (EGF + FGF4 + PDGF-A + VEGF) | Cell Number, % of positive control (EGF + FGF4 + PDGF-AB) [%] | Cell Number, Average Total Cell Number (EGF + FGF4 + PDGF-AB) | Sox17 Expression, % of positive control (EGF + FGF4 + PDGF-AB) [%] | Sox17 Expression, Average Total Intensity (EGF + FGF4 + PDGF-AB) | further results
1 | CCN1CC(=O)NCCCc2cncc(c2)-c2ncnc(n2)Nc2cc(Cl)cc(c2)C1 [Compound 35, 10-Chloro-14-ethyl-3,5,7,14,17,23,27-heptaazatetracyclo[19.3.1.1˜2,6˜0.1˜8,12]Theptacosa-1(25), 2(27), 3,5,8(26), 9,11,21,23-nonaen-16-one] | 228.40 | 23887 | −6.32 | −1.01E+07 | 203.36 | 21268 | 0.85 | 1.36E+06 | 147.80 | 15457 | 43.15 | 6.89E+07 | 154.25 | 16132 | 57.04 | 9.11E+07 | 168.39 | 17611 | 8.03 | 1.28E+07 | Cell Number, % of positive control [1]: 171.62%; Cell Number, Average Total Cell Number [1]: 17949; Sox17 Expression, % of positive control [1]: 0.96%; Sox17 Expression, Average Total Intensity [1]: 1.54E+06; Cell Number, % of positive control (EGF + PDGF-A + VEGF): 222.23%; Cell Number, Average Total Cell Number (EGF + PDGF-A + VEGF): 23242; Sox17 Expression, % of positive control (EGF + PDGF-A + VEGF): 7.72%; Sox17 Expression, Average Total Intensity (EGF + PDGF-A + VEGF): 1.23E+07; Cell Number, % of positive control (FGF4 + PDGF-A + VEGF): 153.63%; Cell Number, Average Total Cell Number (FGF4 + PDGF-A + VEGF): 16068; Sox17 Expression, % of positive control (FGF4 + PDGF-A + VEGF): 24.57%; Sox17 Expression, Average Total Intensity (FGF4 + PDGF-A + VEGF): 3.92E+07
2 | O=C1NCCCc2cncc(c2)-c2ncnc(n2)Nc2cccc(c2)CN2CCCC1C2 (centres unmarked) [Compound 17, 3,5,7,14,20,26,31-Heptaazapentacyclo[22.3.1.1-2,6˜1˜8,12˜1˜14,18˜]hentriaconta-1(28), 2(31), 3,5,8(30), 9,11,24,26-nonaen-19-one] | 73.43 | 6942 | 0.74 | 1.27E+06 | 60.69 | 5738 | 1.83 | 3.14E+06 | 144.37 | 13649 | 8.43 | 1.45E+07 | 110.85 | 10480 | 5.23 | 8.97E+06 | 47.10 | 4453 | 0.54 | 9.30E+05 | Cell Number, % of positive control [1]: 109.91%; Cell Number, Average Total Cell Number [1]: 10391; Sox17 Expression, % of positive control [1]: 5.20%; Sox17 Expression, Average Total Intensity [1]: 8.92E+06; Cell Number, % of positive control (EGF + PDGF-A + VEGF): 60.59%; Cell Number, Average Total Cell Number (EGF + PDGF-A + VEGF): 5728; Sox17 Expression, % of positive control (EGF + PDGF-A + VEGF): 1.24%; Sox17 Expression, Average Total Intensity (EGF + PDGF-A + VEGF): 2.14E+06; Cell Number, % of positive control (FGF4 + PDGF-A + VEGF): 139.59%; Cell Number, Average Total Cell Number (FGF4 + PDGF-A + VEGF): 13198; Sox17 Expression, % of positive control (FGF4 + PDGF-A + VEGF): 7.54%; Sox17 Expression, Average Total Intensity (FGF4 + PDGF-A + VEGF): 1.29E+07
3 | O=C1NCCCc2cncc(c2)-c2ncnc(n2)Nc2cccc(c2)CN2CCC1CC2 [Compound 22, 1,8,10,12,16,22,30-Heptaazapentacyclo[22.2.2.1-3,7˜0.1˜9,13˜1-14,18˜]hentriaconta-3(31), 4,6,9(30), 10,12,14(29), 15,17-nonaen-23-one] | 149.19 | 14105 | 1.02 | 1.75E+06 | 137.19 | 12971 | 6.05 | 1.04E+07 | 122.80 | 11610 | 7.77 | 1.33E+07 | 132.44 | 12522 | 4.59 | 7.88E+06 | 175.36 | 16580 | 5.01 | 8.60E+06 | Cell Number, % of positive control [1]: 155.23%; Cell Number, Average Total Cell Number [1]: 14676; Sox17 Expression, % of positive control [1]: 3.27%; Sox17 Expression, Average Total Intensity [1]: 5.61E+06; Cell Number, % of positive control (EGF + PDGF-A + VEGF): 215.48%; Cell Number, Average Total Cell Number (EGF + PDGF-A + VEGF): 20372; Sox17 Expression, % of positive control (EGF + PDGF-A + VEGF): 2.91%; Sox17 Expression, Average Total Intensity (EGF + PDGF-A + VEGF): 4.99E+06; Cell Number, % of positive control (FGF4 + PDGF-A + VEGF): 129.85%; Cell Number, Average Total Cell Number (FGF4 + PDGF-A + VEGF): 12277; Sox17 Expression, % of positive control (FGF4 + PDGF-A + VEGF): 2.86%; Sox17 Expression, Average Total Intensity (FGF4 + PDGF-A + VEGF): 4.90E+06
4 | CN1CCC(=O)NCCCNc2ncccc2-c2ncnc(n2)Nc2cccc(c2)C1 [Compound 39, 9-Methyl-2,3,4,5,7,8,9,10-octahydro-16H-17,21-(azeno)-11,15-(metheno)pyrido[3,2-g][1,3,5,9,13,17]hexaazacyclotricosin-6(1H)-one] | 122.85 | 11615 | 0.09 | 1.49E+05 | 110.59 | 10456 | 2.98 | 5.11E+06 | 96.28 | 9103 | 0.43 | 7.32E+05 | 84.33 | 7973 | 3.09 | 5.30E+06 | 105.47 | 9972 | 0.94 | 1.62E+06 | Cell Number, % of positive control [1]: 111.48%; Cell Number, Average Total Cell Number [1]: 10540; Sox17 Expression, % of positive control [1]: 1.29%; Sox17 Expression, Average Total Intensity [1]: 2.22E+06; Cell Number, % of positive control (EGF + PDGF-A + VEGF): 180.34%; Cell Number, Average Total Cell Number (EGF + PDGF-A + VEGF): 17050; Sox17 Expression, % of positive control (EGF + PDGF-A + VEGF): 2.82%; Sox17 Expression, Average Total Intensity (EGF + PDGF-A + VEGF): 4.84E+06; Cell Number, % of positive control (FGF4 + PDGF-A + VEGF): 93.67%; Cell Number, Average Total Cell Number (FGF4 + PDGF-A + VEGF): 8856; Sox17 Expression, % of positive control (FGF4 + PDGF-A + VEGF): 0.41%; Sox17 Expression, Average Total Intensity (FGF4 + PDGF-A + VEGF): 7.01E+05
